The numbers were not newly measured in US9890151B2, “3,5-dichloro,4-(3,4-(cyclo-)alkoxyphenyl)- 2-carbonyloxy)ethyl)pyridine derivatives as PDE-4 inhibitors” (CHIESI FARMACEUTICI S.p.A., priority 2014, dated 2018), which cites them from elsewhere.

Where [1] appears, read: patients with severe disease who have frequent exacerbations and mucus hypersecretion.

Structures are written as SMILES.

Take `O=C(Nc1c(Cl)cncc1Cl)c1ccc(OC(F)F)c(OCC2CC2)c1` [roflumilast]: under “COPD patients, oral roflumilast given over 4 weeks”, the “reduction of the numbers of neutrophils in sputum” value was 36%. Under setting [1], the “improvement of FEV 1” value is on record as “approximately 50 mL” and the reduction of exacerbation entry was “about 15%”.
